# Measured values taken from paper PMC11596392, “Enhanced Antibacterial, Anti-Inflammatory, and Antibiofilm Activities of Tryptophan-Substituted Peptides Derived from Cecropin A-Melittin Hybrid Peptide BP100” (Molecules, 2024).
# Where no end group is shown, it is not given here.
# Experiments:
# S. aureus (KCTC 1621) = format: cell-based, Staphylococcus aureus; conditions: broth microdilution in MHB, 37 °C, 24 h, 100% inhibition of growth
# Description: (§1) The antibacterial efficacy of the synthesized peptides was evaluated by determining the minimal inhibitory concentrations (MICs) against six standard bacterial strains and five drug-resistant bacterial strains using the Clinical and Laboratory Standards Institute (CLSI) microdilution method. Melittin served as the positive control.
# (§2) The minimal inhibitory concentrations (MICs) of the peptides against bacterial strains were determined using a modified broth-microdilution method in accordance with the National Committee for Clinical Laboratory Standards (NCCLS) guidelines. Overnight cultures were diluted in cation-adjusted Mueller–Hinton Broth (MHB) to achieve an inoculum density of 2 × 10^6 CFU/mL. A two-fold serial dilution of the peptide solution (100 μL) was introduced into microtiter plates, followed by the addition of 100 μL of bacterial suspension. The plates were then incubated at 37 °C for 24 h to determine the MICs. Wells containing only culture media served as negative controls, while those with added bacteria functioned as positive controls. The MIC, expressed in μM, was defined as the lowest peptide concentration that prevented visible bacterial growth. This protocol was also employed to determine MICs in the presence of physiological salts (150 mM of NaCl, 4.5 mM of KCl, 6 μM of NH4Cl, 1 mM of MgCl2, 2.5 mM of CaCl2, and 4 μM of FeCl3) and 20% human serum to assess the peptides’ efficacy under conditions more closely resembling physiological environments. All experiments were conducted in triplicate and repeated three times independently to ensure reproducibility and statistical significance of the results.
# [1] = tested on: S. epidermidis (KCTC 1917); format: cell-based, Staphylococcus epidermidis; conditions: broth microdilution in MHB, 37 °C, 24 h, 100% inhibition of growth
# Description: as §1, §2
# B. subtilis (KCTC 3068) = format: cell-based, Bacillus subtilis; conditions: broth microdilution in MHB, 37 °C, 24 h, 100% inhibition of growth
# Description: as §1, §2
# MRSA (CCARM 3089) = format: cell-based, methicillin-resistant Staphylococcus aureus; conditions: broth microdilution in MHB, 37 °C, 24 h, 100% inhibition of growth
# Description: as §1, §2
# MRSA (CCARM 3090) = format: cell-based, methicillin-resistant Staphylococcus aureus; conditions: broth microdilution in MHB, 37 °C, 24 h, 100% inhibition of growth
# Description: as §1, §2
# VREF (ATCC 51559) = format: cell-based, vancomycin-resistant Enterococcus faecium; conditions: broth microdilution in MHB, 37 °C, 24 h, 100% inhibition of growth
# Description: as §1, §2
# E. coli (KCTC 1682) = format: cell-based, Escherichia coli; conditions: broth microdilution in MHB, 37 °C, 24 h, 100% inhibition of growth
# Description: as §1, §2
# [2] = tested on: P. aeruginosa (KCTC 1637); format: cell-based, Pseudomonas aeruginosa; conditions: broth microdilution in MHB, 37 °C, 24 h, 100% inhibition of growth
# Description: as §1, §2
# [3] = tested on: S. typhimurium (KCTC 1926); format: cell-based, Salmonella typhimurium; conditions: broth microdilution in MHB, 37 °C, 24 h, 100% inhibition of growth
# Description: as §1, §2
# MDRPA (CCARM 2095) = format: cell-based, multidrug-resistant Pseudomonas aeruginosa; conditions: broth microdilution in MHB, 37 °C, 24 h, 100% inhibition of growth
# Description: as §1, §2
# MDRPA (CCARM 2109) = format: cell-based, multidrug-resistant Pseudomonas aeruginosa; conditions: broth microdilution in MHB, 37 °C, 24 h, 100% inhibition of growth
# Description: as §1, §2
# [4] = tested on: sheep red blood cells (sRBCs); test: Hemolytic activity assay; format: cell-based; conditions: 4% (v/v) sheep red blood cells in PBS, 1 h, 37 °C; 1 to 256 μM tested
# Description: To assess toxicity in mammalian cells, we evaluated the hemolytic activity of the peptides on sheep red blood cells (sRBCs). […] The therapeutic index (TI), a measure commonly employed to evaluate the cell selectivity of antibacterial agents, was calculated as the ratio of the concentration causing 10% hemolysis of sRBCs (HC10) to the GM [19, 20, 21, 22].
# The hemolytic activity of the peptides was tested through hemolysis assay of sheep red blood cells (sRBCs). The sRBCs were diluted in PBS to achieve a 4% (v/v) concentration. Subsequently, 100 μL of peptide solutions, ranging from 1 to 256 μM, was dispensed into a 96-well plate containing an equal volume of the erythrocyte suspension. After incubating for 1 h at 37 °C and centrifuging at 1000× g for 10 min, 100 μL of the supernatant was transferred to a new 96-well plate. Hemoglobin release was quantified using a microplate reader at a wavelength of […]. The percentage of hemolysis was calculated using percentage hemolysis = 100 × [[…]], where A represents the absorbance of the peptide-treated sample at 540 nm, A0 corresponds to the absorbance value representing 0% hemolysis in PBS, and At corresponds to the absorbance value representing 100% hemolysis in 0.1% Triton X-100.
# [5] = tested on: MDRPA (CCARM 2095) biofilm formation; format: cell-based, multidrug-resistant Pseudomonas aeruginosa; conditions: overnight 37 °C, crystal violet staining; for MBIC50: 50% inhibition; for MBIC90: 90% inhibition
Substance,Minimal Inhibitory Concentration (MIC) (S. aureus (KCTC 1621)) [µM],Minimal Inhibitory Concentration (MIC) [1] [µM],Minimal Inhibitory Concentration (MIC) (B. subtilis (KCTC 3068)) [µM],Minimal Inhibitory Concentration (MIC) (MRSA (CCARM 3089)) [µM],Minimal Inhibitory Concentration (MIC) (MRSA (CCARM 3090)) [µM],Minimal Inhibitory Concentration (MIC) (VREF (ATCC 51559)) [µM],Minimal Inhibitory Concentration (MIC) (E. coli (KCTC 1682)) [µM],Minimal Inhibitory Concentration (MIC) [2] [µM],Minimal Inhibitory Concentration (MIC) [3] [µM],Minimal Inhibitory Concentration (MIC) (MDRPA (CCARM 2095)) [µM],Minimal Inhibitory Concentration (MIC) (MDRPA (CCARM 2109)) [µM],HC10 (peptide concentration that caused 10% hemolysis) [4] [µM],MBIC50 [5] [µM],MBIC90 [5] [µM]
KKWFKKWLKWL-NH2 [BP13],4,8,8,32,32,16,8,16,8,8,16,>256,4 to 8,8
KKWWKKILKYL-NH2 [BP5],2,1,2,4,8,8,2,4,2,8,4,>256,4 to 8,8
